# In patent publication US20240269299A1, “POLYETHYLENE GLYCOL-DRUG CONJUGATE AND USE THEREOF” (CHONGQING UPGRA BIOTECHNOLOGY CO. LTD., priority 2021, published 2024):
# System: choroidal neovascularization (CNV)
# Assay: Laser modeling of choroidal neovascularization (CNV) in mice
# Type: in vivo, C57BL/6J suckling mice
# Settings: 1 μL injected into vitreous space one week after photocoagulation
# Experimental: Experimental animals: C57BL/6J suckling mice, where the mice were all female and subjected to laser modeling three days after birth.
# A mixed solution of 20% V/V PEG300, 20% V/V anhydrous ethanol and 60% V/V normal saline was used as a solvent for compound 39-205 to prepare a 20 mg/mL solution for use in mice No. 6 and No. 7, respectively. A saline solution of aflibercept was used as a positive control for mouse No. 5.
# After the mice were anesthetized, a semiconductor laser was used to perform retinal photocoagulation around optic discs under a retinoscope. An irradiation site was between blood vessels that were one optic disc diameter away from the optic disc. The generation of bubbles after photocoagulation was an indicator of breaking Bruch's membrane. The laser modeling conditions for mice No. 6 and No. 7 were 350 mw and 200 ms, and the laser modeling conditions for mouse No. 5 were 300 mw, 260 ms, and the photocoagulation time was 1 s. One week after photocoagulation, medication treatments started for the mice. The administration method was: 1 μL of each of the 20 mg/mL solution of compound 39-205 prepared above and a normal saline solution of aflibercept was injected into vitreous space.
substance,measurement,setting,value
aflibercept,area of the laser spot after administration,"compound 39-205 as 20 mg/mL solution, aflibercept in normal saline, FIG. 1 to FIG. 4",did not significantly reduce
same,fundus angiography after administration,"mouse No. 5, FIG. 1",not significantly improved
